In patent US7723021B2, “Methods for treating lentivirus infections” (The J. David Gladstone Institutes, priority 2003, dated 2010):
Entries after “also recorded” stand apart in the source; their conditions may differ. Residues, ends and D or L forms follow the SMILES beside them. *: point of attachment. Cbz = O=C(OCc1ccccc1)*

Experiments:
[1] = system: Vif-induced degradation of polyubiquitylated APOBEC3G; assay: 293T cells cotransfected with APOBEC3G-HA, His-ubiquitin and Vif, with MG132, anti-HA immunoblot; assay type: cell-based; settings: MG132 for the final 6 hours of culture
Description: To obtain further insight into the mechanism of Vif-induced degradation of APOBEC3G, it was investigated whether APOBEC3G is modified by ubiquitylation. APOBEC3G and His-ubiquitin expression vectors (Treier et al., 1994) were cotransfected into 293T cells in the presence or absence of Vif expression vector. After 48 hours in culture, cellular lysates were prepared. […] Immunoblotting of lysates prepared in the absence of APOBEC3G-HA confirmed that anti-HA antibodies selectively reacted with modified forms of APOBEC3G (FIG. 7C, lane 10). Coexpression of Vif was associated with a complete loss of these polyubiquitylated APOBEC3G species as well as diminished expression of unmodified APOBEC3G (FIG. 7C, lanes 6 and 8). To investigate whether the 26S proteasome mediated Vif-induced degradation of these polyubiquitylated APOBEC3G protein species, parallel experiments were performed in the presence of the proteasome inhibitor, MG132. […] However, it was also observed in multiple experiments that one of the many APOBEC3G degradation products appearing in Vif-expressing cells increased after the addition of MG132 (FIG. 7C, compare lanes 7 and 8). These findings raise the possibility that Vif action may involve multiple pathways including the targeting of select proteolytic fragments of APOBEC3G for degradation by the 26S proteasome.
FIG. 7. HIV-1 Vif induces degradation of APOBEC3G, and polyubiquitylated forms of APOBEC3G form a major target for Vif induced degradation. (A and B) Vif promotes degradation or extensive proteolysis of APOBEC3G as reflected by the loss of both N- and C-terminal immunoreactive epitopes. Graded amounts of expression vector DNA encoding HA-APOBEC3G or APOBEC3G-HA were co-transfected with and without Vif expression vector DNA into 293T cells. Cellular lysates prepared from these cultures were analyzed by immunoblotting with anti-HA antibodies. […] Note that Vif expression induces a loss of anti-HA immunoreactivity regardless of whether the HA epitope is positioned at the N- or C-terminus of APOBEC3G. (C) APOBEC3G is polyubiquitylated and Vif induces degradation of (Ub)n-APOBEC3G apparently by a proteasome-independent mechanism. 293T cells were cotransfected with APOBEC3G-HA and his-ubiquitin expression vectors in the presence or absence of Vif expression vector. 48 hours later, cellular lysates were prepared. As indicated, select cultures were supplemented with the proteasome inhibitor, MG132, for the final 6 hours of culture. Lysates were analyzed by immunoblotting with anti-HA antibodies. […] In addition to the polyubiquitylated forms of APOBEC3G-HA, degradation products of APOBEC3G-HA were apparent both in the presence and absence of Vif expression.

[2] = system: Vif-mediated degradation of APOBEC3G (luc-APOBEC3G); assay: Vif/luc-APOBEC3G HeLa cell line luciferase assay; assay type: cell-based
Excerpt: The following is one non-limiting example of a suitable assay for identifying agents that reduce Vif-induced degradation of APOBEC3G. Mammalian cells (e.g., an immortalized cell line) are stably transfected with an expression vector that includes a coding sequence for a luciferase-APOBEC3G fusion protein, such that the cells synthesize the luciferase-APOBEC3G (luc-APOBEC3G) fusion protein. A substrate for luciferase is provided in the cell medium, such that the substrate enters the cell, and is acted on by the luciferase portion of the luciferase-APOBEC3G to yield a luminescent product. The level of luciferase in the cell is detected using a luminometer, and the level of luc-APOBEC3G is expressed as relative light units. The cells are transfected with an expression vector that includes a coding sequence for Vif to yield a Vif/luc-APOBEC3G cell. Because Vif induces degradation of luc-APOBEC3G, the presence of Vif protein in the Vif/luc-APOBEC3G cell reduces the level of luc-APOBEC3G, compared to the level of luc-APOBEC3G in the absence of Vif. When the Vif/luc-APOBEC3G cell is contacted with a test agent that reduces Vif-induced APOBEC3G degradation, the level of luc-APOBEC3G increases relative to the level of luc-APOBEC3G in the Vif/luc-APOBEC3G cell in the absence of the test agent.
Several cell lines were constructed that could serve as the basis for a high-throughput assay for inhibitors of HIV-1 Vif action. The cell lines produce Vif and an APOBEC3G fusion protein composed of APOBEC3G fused to a heterologous protein that provides a detectable signal. One such cell line was constructed as follows. HeLa cells were co-transfected with both a Vif expression vector and a vector expressing APOBEC3G tagged with renilla-luciferase (luc-APOBEC3G), to generate a Vif/luc-APOBEC3G cell line. […]
The Vif/luc-APOBEC3G cell line was treated with the proteasome inhibitor MG132, an agent capable of blocking Vif-mediated degradation of APOBEC3G, and the cells were subsequently lysed. […] The level of luc-APOBEC3G was expressed as relative light units (RLU). […]

With CC(C)C[C@@H](C=O)NC(=O)[C@H](CC(C)C)NC(=O)[C@H](CC(C)C)NC(=O)OCc1ccccc1 [MG132] (Cbz-Leu-Leu-Leu-aldehyde) the “Vif-dependent disappearance of polyubiquitylated APOBEC3G” value [1] was “did not block; also recorded: not blocked”, the “accumulation of polyubiquitylated proteins within the cells” value [1] was “increased accumulation” and the “levels of unmodified APOBEC3G in the presence of Vif” value [1] was “did not block the Vif-dependent disappearance of polyubiquitylated APOBEC3G or increase levels of the unmodified protein”. For the same molecule, the “one of the APOBEC3G degradation products in Vif-expressing cells” value [1] was “increased in quantity”, the “Vif-caused reduction in the level of luc-APOBEC3G protein” value ([2]; Vif/luc-APOBEC3G cells) was “reversed” and the “reduction of RLU in the absence of the proteasome inhibitor relative to MG132-treated cells” value ([2]; Vif/luc-APOBEC3G cells) was “approximately 20 fold”. The “level of luc-APOBEC3G in cell lysate” value ([2]; Vif/luc-APOBEC3G cells treated with MG132) was 203333 RLU.
